Values of other authors in patent publication US20100021614A1, “COMPOSITION FOR PROMOTING BIOABSORPTION OF FLAVONOID, FOOD/BEVERAGE FOR PROMOTING BIOABSORPTION OF FLAVONOID USING THE COMPOSITION, AND METHOD FOR PRODUCTION OF THE FOOD/BEVERAGE” (priority 2006, published 2010).

Details: Wakui et al., J. Chromatog., 575, 131-136 (1992)

fraction of the amount administered that is absorbed: 1/300
SMILES: O=c1cc(-c2ccccc2)oc2cc(O)c(O)c(O)c12 [baicalein]
